According to patent US20080161338A1, “Novel Pyrrolodihydroisoquinolines as Pde 10 Inhibitors” (ALTANA PHARMA AG, priority 2005, published 2008):

| Compound | melting point [°C] |
| --- | --- |
| COc1cc2c(cc1OC)-c1c(-c3nc(C)no3)c(-c3cc(C)c(O)c(C)c3)c(C)n1C(C)C2 (racemic) [Example 1, (5RS)-4-[8,9-Dimethoxy-3,5-dimethyl-1-(3-methyl-[1,2,4]oxadiazol-5-yl)-5,6-dihydro-pyrrolo[2,1-a]isoquinolin-2-yl]-2,6-dimethyl-phenol] | 182 to 184 |
| COc1cc2c(cc1OC)-c1c(-c3nc(-c4ccccc4)no3)c(-c3cc(C)c(O)c(C)c3)c(C)n1C(C)C2 (racemic) [Example 3, (5RS)-4-[8,9-Dimethoxy-3,5-dimethyl-1-(3-phenyl-[1,2,4]oxadiazol-5-yl)-5,6-dihydro-pyrrolo[2,1-a]isoquinolin-2-yl]-2,6-dimethyl-phenol] | 203 to 206 |
| COc1cc2c(cc1OC)-c1c(-c3nc(C4CC4)no3)c(-c3cc(C)c(O)c(C)c3)c(C)n1C(C)C2 (stereo not drawn) [Example 2, (5RS)-4-[1-(3-Cyclopropyl-[1,2,4]oxadiazol-5-yl)-8,9-dmethoxy-3,5-dimethyl-5,6-dihydro-pyrrolo[2,1-a]isoquinolin-2-yl]-2,6-dimethyl-phenol] | 174 to 175 |

Next, values leading:

| melting point [°C] | Compound |
| --- | --- |
| 191 to 193 | COc1cc2c(cc1OC)-c1c(-c3nc(-c4ccccc4)no3)c(-c3cc(C)c(O)c(C)c3)c(C)n1CC2 [Example 4, 4-[8,9-Dimethoxy-3-methyl-1-(3-phenyl-[1,2,4]oxadiazol-5-yl)-5,6-dihydro-pyrrolo[2,1-a]isoquinolin-2-yl]-2,6-dimethyl-phenol] |
| 218 to 221 | COc1cc2c(cc1OC)-c1c(-c3nc(C)no3)c(-c3cc(C)c(O)c(C)c3)c(C)n1CC2 [Example 5, 4-[8,9-Dimethoxy-3-methyl-1-(3-methyl-[1,2,4]oxadiazol-5-yl)-5,6-dihydro-pyrrolo[2,1-a]isoquinolin-2-yl]-2,6-dimethyl-phenol] |
| 222 to 224 | COc1cc2c(cc1OC)-c1c(-c3ncc(C)o3)c(-c3cc(C)c(O)c(C)c3)c(C)n1CC2 [Example 6, 4-[8,9-Dimethoxy-3-methyl-1-(5-methyl-oxazol-2-yl)-5,6-dihydro-pyrrolo[2,1-a]isoquinolin-2-yl]-2,6-dimethyl-phenol] |
